Assay results taken from US11596939B2, “Lamp component distribution in a microfluid cell” (priority 2017, dated 2023).

Legend:
target DNA = assay: Sample pre-treatment with antimicrobial peptides before isothermal amplification; details: sample pre-treatment with peptide
LAMP reaction [1] = assay: Effect of antimicrobial peptides on the amplification (LAMP) reaction; format: biochemical
From the text: The use of peptides with higher concentrations may inhibit the amplification reaction in certain extent in comparison of ideal conditions, e.g. pure water (MQ). This is a drawback of use of peptides. However, not all the peptides have an equal effect.
This effect is explained by secondary property of peptides, which is an anti-inhibitory effect. Meaning, that in additionally to lysis effect, peptides also neutralizing inhibitory substances in real samples.

LAMP reaction [2] = assay: ProClin950 in BlisterBuffer, effect on LAMP reaction; format: biochemical; details: added to BlisterBuffer
From the text: Additionally, we added ProClin950 a biozide to the BlisterBuffer in order to inhibit microbial growth.

Row | Compound | increase in isothermal amplification efficiency (target DNA) | other results
1 | bombolitin III | did not give significant increase | –
2 | Cecropin P1 (SWLSKTAKKLENSAKKRISEGIAIAIQGGPR; Cecropin P1; listed as Ascaris suum) | – | increase of the target DNA available for the isothermal amplification (target DNA; on average): 6 times; inhibitory effect on the amplification reaction (LAMP reaction [1]; among current selection of peptides, compared with pure water (MQ)): lowest inhibitory effect; effect on amplification in urinary sample (LAMP reaction [1]; in comparison of pure urinary sample): enhancing effect
3 | MSI-594 | did not give significant increase | –
4 | CC[C@H](C)[C@H](NC(=O)CN)C(=O)NCC(=O)N[C@@H](C)C(=O)N[C@H](C(=O)N[C@@H](CC(C)C)C(=O)N[C@@H](CCCCN)C(=O)N[C@H](C(=O)N[C@@H](CC(C)C)C(=O)N[C@H](C(=O)N[C@H](C(=O)NCC(=O)N[C@@H](CC(C)C)C(=O)N1CCC[C@H]1C(=O)N[C@@H](C)C(=O)N[C@@H](CC(C)C)C(=O)N[C@H](C(=O)N[C@@H](CO)C(=O)N[C@@H](Cc1c[nH]c2ccccc12)C(=O)N[C@H](C(=O)N[C@@H](CCCCN)C(=O)N[C@@H](CCCNC(=N)N)C(=O)N[C@@H](CCCCN)C(=O)N[C@@H](CCCNC(=N)N)C(=O)N[C@@H](CCC(N)=O)C(=O)N[C@@H](CCC(N)=O)C(N)=O)[C@@H](C)CC)[C@@H](C)CC)[C@@H](C)O)[C@@H](C)O)C(C)C)C(C)C [melittin, Melittin] | did not give significant increase | –
5 | MSI-78 | did not give significant increase | –
6 | Cn1sccc1=O [ProClin950, 2-Methyl-4-isothiazolin-3-one] | – | inhibition of the LAMP reaction (LAMP reaction [2]): did not inhibit
